# Laboratory results as given in ChEMBL document CHEMBL1132590, “Aminopyridazines as acetylcholinesterase inhibitors” (J Med Chem, 1999).
# Assays:
# Acetylcholinesterase [1] = target: T1, Acetylcholinesterase (Rattus norvegicus, UniProt P37136)
# T1 sequence (P37136 whole entry): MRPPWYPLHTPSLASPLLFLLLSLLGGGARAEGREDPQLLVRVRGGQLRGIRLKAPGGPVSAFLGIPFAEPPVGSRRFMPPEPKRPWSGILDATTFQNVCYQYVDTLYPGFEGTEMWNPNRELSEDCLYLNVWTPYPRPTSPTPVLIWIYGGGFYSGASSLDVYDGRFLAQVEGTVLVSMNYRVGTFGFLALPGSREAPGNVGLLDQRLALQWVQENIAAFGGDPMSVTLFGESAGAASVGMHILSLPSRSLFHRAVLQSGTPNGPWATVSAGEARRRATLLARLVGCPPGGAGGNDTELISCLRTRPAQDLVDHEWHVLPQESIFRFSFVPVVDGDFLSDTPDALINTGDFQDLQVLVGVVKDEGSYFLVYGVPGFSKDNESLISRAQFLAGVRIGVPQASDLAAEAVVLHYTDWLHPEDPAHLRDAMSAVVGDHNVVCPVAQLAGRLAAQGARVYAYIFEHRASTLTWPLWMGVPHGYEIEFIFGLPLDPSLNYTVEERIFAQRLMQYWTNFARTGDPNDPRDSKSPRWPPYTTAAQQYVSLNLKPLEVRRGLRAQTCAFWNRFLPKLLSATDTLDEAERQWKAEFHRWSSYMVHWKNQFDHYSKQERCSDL
# Description: In vitro inhibition of acetylcholinesterase in homogenized rat striatum.
# Acetylcholinesterase [2] = target: Acetylcholinesterase (Torpedo californica, UniProt P04058)
# Acetylcholinesterase (Torpedo californica, UniProt P04058), sequence (P04058 whole entry): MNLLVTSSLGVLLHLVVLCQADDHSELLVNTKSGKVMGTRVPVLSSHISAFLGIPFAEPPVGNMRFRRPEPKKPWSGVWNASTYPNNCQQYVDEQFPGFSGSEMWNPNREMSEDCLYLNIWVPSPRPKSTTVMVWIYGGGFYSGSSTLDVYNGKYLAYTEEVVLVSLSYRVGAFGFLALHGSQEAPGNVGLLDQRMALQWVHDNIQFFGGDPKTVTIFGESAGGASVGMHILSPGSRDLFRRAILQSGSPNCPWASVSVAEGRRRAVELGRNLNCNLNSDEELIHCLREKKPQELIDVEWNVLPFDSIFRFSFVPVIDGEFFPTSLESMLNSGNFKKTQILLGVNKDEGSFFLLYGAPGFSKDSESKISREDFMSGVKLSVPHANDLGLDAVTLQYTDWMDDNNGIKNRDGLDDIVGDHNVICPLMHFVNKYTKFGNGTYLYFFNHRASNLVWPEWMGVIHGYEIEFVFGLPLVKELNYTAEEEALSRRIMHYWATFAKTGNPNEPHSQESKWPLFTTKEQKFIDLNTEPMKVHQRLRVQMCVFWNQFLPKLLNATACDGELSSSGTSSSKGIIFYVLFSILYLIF
# Description: In vitro inhibition of Torpedo californica acetylcholinesterase.
# [3] = Ratio of inhibitory activity of ocmpound towards acetylcholinesterase from human erythrocytes over butyrylcholinesterase from human serum
# Acetylcholinesterase [4] = target: Acetylcholinesterase (Homo sapiens, UniProt P22303); assay: Inhibitory concentration against acetylcholinesterase (AChE) from human erythrocytes
# Acetylcholinesterase (Homo sapiens, UniProt P22303), sequence (P22303 whole entry): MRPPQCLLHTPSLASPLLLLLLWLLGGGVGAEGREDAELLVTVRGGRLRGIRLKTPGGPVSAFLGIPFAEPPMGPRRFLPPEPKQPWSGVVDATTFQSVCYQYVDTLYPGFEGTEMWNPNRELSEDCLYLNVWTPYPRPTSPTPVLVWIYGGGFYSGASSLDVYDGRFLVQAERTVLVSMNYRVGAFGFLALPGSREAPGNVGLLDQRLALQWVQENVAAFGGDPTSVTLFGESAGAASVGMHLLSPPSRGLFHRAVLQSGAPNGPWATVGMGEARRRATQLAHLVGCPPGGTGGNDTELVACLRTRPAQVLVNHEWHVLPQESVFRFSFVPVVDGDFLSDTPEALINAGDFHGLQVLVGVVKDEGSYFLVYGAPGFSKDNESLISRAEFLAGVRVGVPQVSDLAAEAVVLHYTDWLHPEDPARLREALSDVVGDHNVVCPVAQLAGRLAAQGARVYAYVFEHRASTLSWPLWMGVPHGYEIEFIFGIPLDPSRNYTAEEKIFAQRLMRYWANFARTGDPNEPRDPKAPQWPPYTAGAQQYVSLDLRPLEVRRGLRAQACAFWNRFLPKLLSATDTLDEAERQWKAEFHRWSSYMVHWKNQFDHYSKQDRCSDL
# Cholinesterase = Cholinesterase (Homo sapiens, UniProt P06276); assay: Inhibitory concentration against Butyrylcholinesterase (BuChE) from human serum
# Cholinesterase, sequence (P06276 whole entry): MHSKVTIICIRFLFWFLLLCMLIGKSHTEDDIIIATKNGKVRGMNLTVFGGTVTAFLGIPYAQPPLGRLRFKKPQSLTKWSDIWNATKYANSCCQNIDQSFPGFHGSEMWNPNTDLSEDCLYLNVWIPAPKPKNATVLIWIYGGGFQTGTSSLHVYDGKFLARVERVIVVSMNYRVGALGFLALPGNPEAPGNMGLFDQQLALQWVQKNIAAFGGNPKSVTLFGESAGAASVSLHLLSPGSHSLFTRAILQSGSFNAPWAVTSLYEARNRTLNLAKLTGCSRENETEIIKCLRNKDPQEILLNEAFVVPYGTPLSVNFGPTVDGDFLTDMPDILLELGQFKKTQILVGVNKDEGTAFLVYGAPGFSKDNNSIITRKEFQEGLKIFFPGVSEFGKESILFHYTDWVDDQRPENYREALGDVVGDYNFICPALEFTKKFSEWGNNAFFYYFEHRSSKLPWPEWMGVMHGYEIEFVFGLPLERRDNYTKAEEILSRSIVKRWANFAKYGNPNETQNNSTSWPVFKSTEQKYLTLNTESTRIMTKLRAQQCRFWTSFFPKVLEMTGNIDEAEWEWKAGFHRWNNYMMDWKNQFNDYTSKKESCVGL
SMILES,IC50 (Acetylcholinesterase [1]) [µM],IC50 (Acetylcholinesterase [2]) [µM],further results
OCc1cc(-c2ccccc2)nnc1NCCN1CCOCC1,440,,
Cc1cc(-c2ccccc2)nnc1NCCN1CCCCC1,5.4,,
FC(F)(F)c1cc(-c2ccccc2)nnc1NCCN1CCOCC1,740,,
c1ccc(-c2ncc(NCCN3CCCCC3)nn2)cc1,57,,
Cc1cc(-c2ccc(Cl)cc2)nnc1NCCN1CCCCC1,1.3,,
c1ccc(-c2cnc(NCCN3CCCCC3)nn2)cc1,60,,
CN(CCNc1ccc(-c2ccccc2)nn1)Cc1ccccc1,,170,
Nc1cc(-c2ccccc2)nnc1NCCN1CCOCC1,270,,
c1ccc(-c2nnc(NCCN3CCCCC3)s2)cc1,54,,
CCN1CCCC1CNc1ccc(-c2ccccc2)nn1 (configuration not stated),,62,
c1ccc(-c2ccc(NCCN3CCCCC3)nn2)cc1,13,71,
Cc1cc(-c2ccc3c(c2)OCO3)nnc1NCCN1CCCCC1,1,,
c1ccc(-c2ccc(NCCCCCN3CCc4ccccc4C3)nn2)cc1,,10,Ratio [3]: 0.0066; IC50 (Acetylcholinesterase [4]): 47 µM; IC50 (Cholinesterase): 0.31 µM
c1ccc(-c2ccc(NCCN3CCc4ccccc4C3)nn2)cc1,,83,
c1ccc(C2=NNC(NCCN3CCCCC3)=NC2)cc1,47,,
Cc1cc(-c2ccc(Cl)cc2)nnc1NCCN1CCOCC1,34,,

SMILES,IC50 (Acetylcholinesterase [1]) [µM],IC50 (Acetylcholinesterase [2]) [µM],further results
CN(CCCCNc1ccc(-c2ccccc2)nn1)Cc1ccccc1,,11,
c1ccc(CN2CCC(CNc3ccc(-c4ccccc4)nn3)CC2)cc1,,5.6,
c1ccc(-c2ccc(NCCCCN3CCc4ccccc4C3)nn2)cc1,,15,
c1ccc(CN2CCC(CCNc3ccc(-c4ccccc4)nn3)CC2)cc1,,0.12,Ratio [3]: 5; IC50 (Acetylcholinesterase [4]): 0.14 µM; IC50 (Cholinesterase): 0.7 µM
c1ccc(CN2CCC(Nc3ccc(-c4ccccc4)nn3)CC2)cc1,,65,
c1ccc(-c2ccc(NCCCN3CCc4ccccc4C3)nn2)cc1,,35,
CN(CCCCCNc1ccc(-c2ccccc2)nn1)Cc1ccccc1,,0.74,Ratio [3]: 0.36; IC50 (Acetylcholinesterase [4]): 0.93 µM; IC50 (Cholinesterase): 0.34 µM
c1ccc(-c2ccc(NCCN3CCOCC3)nn2)cc1,> 1000,800,
CN(CCCNc1ccc(-c2ccccc2)nn1)Cc1ccccc1,,13,
c1ccc(-c2cc(-c3ccccc3)c(NCCN3CCOCC3)nn2)cc1,260,,
c1ccc(-c2cnc(NCCN3CCCCC3)nc2)cc1,> 100,,
c1ccc(-c2ccc(NCCCN3CCOCC3)nn2)cc1,,410,
Cc1cc(-c2ccccc2)nnc1NCCN1CCOCC1,85,,
c1ccc(-c2ccc(NCCN3CCCCC3)nc2)cc1,70,,
N#Cc1cc(-c2ccccc2)nnc1NCCN1CCOCC1,> 100,,
